Assay results from patent US11629171B2, “Beta-hairpin peptidomimetics” (POLYPHOR AG, priority 2017, dated 2023).
In brackets after ≈: the same amount, converted by molar mass. Where a SMILES comes first, the peptide text is derived from it. Bridges are numbered along the chain shown (N, C = ends). Roman numbers before positions name the chains, in order. [ ]: non-standard residue; d: D form. Leu(3R-OH) = CC(C)[C@@H](O)[C@H](N)C(=O)O; Thr(ol) = C[C@@H](O)[C@H](N)CO; Pen = CC(C)(S)[C@H](N)C(=O)O; Tle = CC(C)(C)[C@H](N)C(=O)O; Hiv = CC(C)[C@H](O)C(=O)O; dDab = NCC[C@@H](N)C(=O)O; hSer = N[C@@H](CCO)C(=O)O; Dab = NCC[C@H](N)C(=O)O; Abu = CC[C@H](N)C(=O)O; Dap = NC[C@H](N)C(=O)O

Assays:
Type in all cases: cell-based
[1] = test system: Acinetobacter baumannii 872842; settings: 872842
Method in brief: (§1)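 Standard CLSI microdilution testing: bacterial suspensions standardized against 0.5 McFarland to about 10^6 CFU/mL in MH-II broth meet serially halved peptide concentrations in broth containing 0.002% polysorbate 80; incubation lasts 18-20 h at 35° C before the MIC is scored.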

[2] = test system: Acinetobacter baumannii DSM 30008; settings: DSM 30008
Method in brief: as §1

[3] = test system: Enterobacter cloacae 848840; settings: 848840
Method in brief: as §1

[4] = test system: Escherichia coli 926415; settings: 926415
Method in brief: as §1

[5] = test system: Escherichia coli ATCC 25922; settings: ATCC 25922
Method in brief: as §1

[6] = test system: Klebsiella pneumoniae 968733; settings: 968733
Method in brief: as §1

[7] = test system: Klebsiella pneumoniae SSI #3010; settings: SSI #3010
Method in brief: as §1

[8] = test system: Pseudomonas aeruginosa ATCC 27853; settings: ATCC 27853
Method in brief: as §1

[9] = test system: human red blood cells (hRBC); test: Hemolysis; settings: red cells of human, 1 h, 200
Method in brief: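 Washed fresh human RBC (20% v/v) incubated with peptide at 200 μg/mL for 1 h at 37° C with shaking. Supernatant OD540 measured after dilution, blank corrected; percent hemolysis = OD540 peptide / OD540 of 2% Triton X-100 lysis × 100, PBS with 10% water as 0%.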

Compound | MIC [1] | MIC [2] | MIC [3] | MIC [4] | MIC [5] | MIC [6] | MIC [7] | MIC [8] | Hemolysis at 200 μg/mL [9] | Acinetobacter baumannii DSM 30008 MIC [2] | Escherichia coli ATCC 25922 MIC [5] | Klebsiella pneumoniae SSI #3010 MIC [7] | Pseudomonas aeruginosa ATCC 27853 MIC [8]
CC[C@@H]1NC(=O)[C@@H](CC(C)C)NC(=O)[C@H](CCN)NC(=O)[C@@H](NC(=O)[C@H](CN)NC(=O)[C@@H](NC(=O)[C@H](CCN)NC(=O)CC[C@@H]2NC(=O)[C@H]([C@@H](C)O)NC(=O)[C@H](Cc3ccc(O)cc3)NC(=O)[C@@H](NC(=O)[C@@H](NC(C)=O)C(C)C)CSSC[C@@H](C(=O)N[C@@H](CO)C(N)=O)NC(=O)[C@H](C(C)(C)C)NC(=O)[C@H](CO)NC(=O)[C@H](Cc3c[nH]c4ccccc34)NC(=O)[C@H](CCN)NC(=O)[C@@H](CCN)NC2=O)[C@@H](C)O)CCNC(=O)[C@H]([C@@H](C)O)NC(=O)[C@H](CCN)NC(=O)[C@H](CCN)NC1=O [Ex. 255] (I: Ac-VCYTE[dDab][Dab]WS[Tle]CS-NH2 / II: [Dab]T[Dap][Dab][Dab][dL][Abu][Dab][Dab]T; disulfide I:2-I:11; amide I:5-II:N; lactam II:4-II:C) | 0.125 µg/mL (≈ 0.0521 µM) | 0.03125 µg/mL (≈ 0.013 µM) | 0.0625 µg/mL (≈ 0.0261 µM) | 0.0625 µg/mL (≈ 0.0261 µM) | 0.0625 µg/mL (≈ 0.0261 µM) | 0.25 µg/mL (≈ 0.104 µM) | 0.03125 µg/mL (≈ 0.013 µM) | 0.0625 µg/mL (≈ 0.0261 µM) | 1% |  |  |  | 
CC(C)C[C@@H]1NC(=O)[C@@H](CC(C)C)NC(=O)[C@H](CCN)NC(=O)[C@@H](NC(=O)[C@H](CCN)NC(=O)[C@@H](NC(=O)[C@H](CCN)NC(=O)CC[C@@H]2NC(=O)[C@H](CCN)NC(=O)[C@H](Cc3ccc(O)cc3)NC(=O)[C@@H](NC(=O)[C@@H](O)C(C)C)CSSC[C@@H](C(=O)N[C@H](CO)[C@@H](C)O)NC(=O)[C@H](C(C)(C)C)NC(=O)[C@H](CO)NC(=O)[C@H](Cc3c[nH]c4ccccc34)NC(=O)[C@H](CCO)NC(=O)[C@@H](CCN)NC2=O)[C@@H](C)O)CCNC(=O)[C@H]([C@@H](C)O)NC(=O)[C@H](CCN)NC(=O)[C@H](CCN)NC1=O [Ex. 74] (I: H-[Hiv]CY[Dab]E[dDab][hSer]WS[Tle]C[Thr(ol)] / II: [Dab]T[Dab][Dab][Dab][dL]L[Dab][Dab]T; disulfide I:2-I:11; amide I:5-II:N; lactam II:4-II:C) | 0.0625 µg/mL (≈ 0.026 µM) | 0.0625 µg/mL (≈ 0.026 µM) | 0.125 µg/mL (≈ 0.0521 µM) | 0.25 µg/mL (≈ 0.104 µM) | 0.0625 µg/mL (≈ 0.026 µM) | 0.0625 µg/mL (≈ 0.026 µM) | 0.0625 µg/mL (≈ 0.026 µM) | 0.25 µg/mL (≈ 0.104 µM) | <1% |  |  |  | 
CC(=O)N[C@H](C(=O)N[C@H](C(=O)N[C@@H](Cc1ccc(O)cc1)C(=O)N[C@H]1CSSC(C)(C)[C@@H](C(=O)N[C@H](C(=O)N[C@@H](CCC(=O)O)C(=O)N[C@H](C(N)=O)[C@@H](C)O)C(C)(C)C)NC(=O)[C@H](Cc2c[nH]c3ccccc23)NC(=O)[C@H](CCN)NC(=O)[C@@H](CCN)NC(=O)[C@H](CCC(=O)N[C@@H](CCN)C(=O)N[C@H](C(=O)N[C@@H](CN)C(=O)N[C@H]2CCNC(=O)[C@H]([C@@H](C)O)NC(=O)[C@H](CCN)NC(=O)[C@H](CCN)NC(=O)[C@H]([C@H](O)C(C)C)NC(=O)[C@@H](CC(C)C)NC(=O)[C@H](CCN)NC2=O)[C@@H](C)O)NC1=O)[C@@H](C)O)C(C)C [Ex. 225] (I: Ac-VTYCE[dDab][Dab]W[Pen][Tle]ET-NH2 / II: [Dab]T[Dap][Dab][Dab][dL][Leu(3R-OH)][Dab][Dab]T; disulfide I:4-I:9; amide I:5-II:N; lactam II:4-II:C) | 0.25 µg/mL (≈ 0.0989 µM) | 0.125 µg/mL (≈ 0.0495 µM) | 0.125 µg/mL (≈ 0.0495 µM) | 0.25 µg/mL (≈ 0.0989 µM) | 0.0625 µg/mL (≈ 0.0247 µM) | 1 µg/mL (≈ 0.396 µM) | 0.0625 µg/mL (≈ 0.0247 µM) | 0.125 µg/mL (≈ 0.0495 µM) | <1% |  |  |  | 
CC(C)C[C@@H]1NC(=O)[C@@H](CC(C)C)NC(=O)[C@H](CCN)NC(=O)[C@@H](NC(=O)[C@H](CN)NC(=O)[C@@H](NC(=O)[C@H](CCN)NC(=O)CC[C@@H]2NC(=O)[C@H](CO)NC(=O)[C@H](Cc3ccc(O)cc3)NC(=O)[C@@H](NC(=O)[C@@H](O)C(C)C)CSSC[C@@H](C(=O)N[C@@H](CO)C(=O)N[C@@H](CC(=O)O)C(N)=O)NC(=O)[C@H](C(C)(C)C)NC(=O)[C@H](CO)NC(=O)[C@H](Cc3c[nH]c4ccccc34)NC(=O)[C@H](CCN)NC(=O)[C@@H](CCN)NC2=O)[C@@H](C)O)CCNC(=O)[C@H]([C@@H](C)O)NC(=O)[C@H](CCN)NC(=O)[C@H](CCN)NC1=O [Ex. 372] (I: H-[Hiv]CYSE[dDab][Dab]WS[Tle]CSD-NH2 / II: [Dab]T[Dap][Dab][Dab][dL]L[Dab][Dab]T; disulfide I:2-I:11; amide I:5-II:N; lactam II:4-II:C) | 0.125 µg/mL (≈ 0.0503 µM) |  | 0.25 µg/mL (≈ 0.101 µM) | 0.125 µg/mL (≈ 0.0503 µM) |  | 0.25 µg/mL (≈ 0.101 µM) |  |  | <1% | 0.03125 µg/mL | 0.0625 µg/mL | 0.0625 µg/mL | 0.0625 µg/mL
CC(=O)N[C@@H](CCN)C(=O)N[C@H](C(=O)N[C@H]1CSSC[C@@H](C(N)=O)NC(=O)[C@H](C(C)(C)C)NC(=O)[C@H](CO)NC(=O)[C@H](Cc2c[nH]c3ccccc23)NC(=O)[C@H](CO)NC(=O)[C@@H](CCN)NC(=O)[C@H](CCC(=O)N[C@@H](CCN)C(=O)N[C@H](C(=O)N[C@@H](CN)C(=O)N[C@H]2CCNC(=O)[C@H]([C@@H](C)O)NC(=O)[C@H](CCN)NC(=O)[C@H](CCN)NC(=O)[C@H](CC(C)C)NC(=O)[C@@H](CC(C)C)NC(=O)[C@H](CCN)NC2=O)[C@@H](C)O)NC(=O)[C@H](CN)NC(=O)[C@H](Cc2ccc(O)cc2)NC1=O)C(C)C [Ex. 125] (I: Ac-[Dab]VCY[Dap]E[dDab]SWS[Tle]C-NH2 / II: [Dab]T[Dap][Dab][Dab][dL]L[Dab][Dab]T; disulfide I:3-I:12; amide I:6-II:N; lactam II:4-II:C) | 0.125 µg/mL (≈ 0.0518 µM) | 0.125 µg/mL (≈ 0.0518 µM) | 0.125 µg/mL (≈ 0.0518 µM) | 0.0625 µg/mL (≈ 0.0259 µM) | 0.0625 µg/mL (≈ 0.0259 µM) | 0.125 µg/mL (≈ 0.0518 µM) | 0.0625 µg/mL (≈ 0.0259 µM) | 0.125 µg/mL (≈ 0.0518 µM) | 2% |  |  |  | 
CC(=O)N[C@H](C(=O)N[C@H](C(=O)N[C@@H](Cc1ccc(O)cc1)C(=O)N[C@H]1CSSC[C@@H](C(=O)N[C@H](C(=O)N[C@@H](C)C(=O)N[C@@H](CO)C(N)=O)C(C)(C)C)NC(=O)[C@H](Cc2c[nH]c3ccccc23)NC(=O)[C@H]([C@@H](C)O)NC(=O)[C@@H](CCN)NC(=O)[C@H](CCC(=O)N[C@@H](CCN)C(=O)N[C@H](C(=O)N[C@@H](CCN)C(=O)N[C@H]2CCNC(=O)[C@H]([C@@H](C)O)NC(=O)[C@H](CCN)NC(=O)[C@H](CCN)NC(=O)[C@H](CC(C)C)NC(=O)[C@@H](CC(C)C)NC(=O)[C@H](CCN)NC2=O)[C@@H](C)O)NC1=O)[C@@H](C)O)C(C)C [Ex. 178] (I: Ac-VTYCE[dDab]TWC[Tle]AS-NH2 / II: [Dab]T[Dab][Dab][Dab][dL]L[Dab][Dab]T; disulfide I:4-I:9; amide I:5-II:N; lactam II:4-II:C) | 0.25 µg/mL (≈ 0.103 µM) | 0.0625 µg/mL (≈ 0.0258 µM) | 0.25 µg/mL (≈ 0.103 µM) | 0.5 µg/mL (≈ 0.206 µM) | 0.125 µg/mL (≈ 0.0515 µM) | 2 µg/mL (≈ 0.824 µM) | 0.125 µg/mL (≈ 0.0515 µM) | 0.125 µg/mL (≈ 0.0515 µM) | <1% |  |  |  | 
